Experimental data from patent US20090179638A1, “ASSAY FOR IDENTIFYING INHIBITORS OF NEURONAL APOPTOTIC PATHWAYS” (AEGERA THERAPEUTICS INC., priority 2006, published 2009).

Assays:
HSP70 and HSP25 = assay: Endogenous HSP protein expression in wild-type or HSF1 null MEFs (immunoblot); format: cell-based, mouse
Description: FIGS. 5B and 5C are photographs of Western blots showing that compound 1 binds HSP90 and causes HSF1-dependent expression of HSP70 and HSP25. A: Wild-type or HSF1 null MEFs were transfected with pGL3B-HSP70, an HSP70 promoter reporter construct, or parental vector (pGL3B), then treated with 40 μM of compound 1 for 24 hours and analyzed for luciferase content as described in Materials and Methods (*=P<0.005 relative to 0 compound 1; **=P<0.005 relative to wild-type MEFs treated with 40 uM compound 1. B: Wild-type or HSF1 null MEFs were treated with increasing concentrations of compound 1 for 24 hours, cells were lysed, normalized for protein content, and analyzed for levels of HSP70, HSP40, and HSP25 as indicated. C: Compound 6-conjugated Sepharose beads were incubated with purified HSP90 for 2 hours, washed, and levels of bound HSP90 were analyzed by immunoblot. Con=Control beads, Alone=Compound 6-beads alone, Comp=[…]+competing compound 1 (at 80 μM). Experiments in Panel A-C were performed three times with identical results.
Induction of cell stress results in the interaction of HSP90 with misfolded proteins and disrupts its association with HSF1, allowing it to bind and activate HSP70 and HSP25 promoters (Sanchez-Perez and Perona, 1999). […]

HSP70 = HSP70 levels in SCG neurons (immunoblot); format: cell-based; conditions: 18 hours
Description: To address this, SCG neurons were treated with compound 1 for 18 hours then lysed and assessed for HSP70 levels by immunoblot. Uninfected PC12rtTA cells were treated in a similar manner. […] To test if the accumulation of HSP70 induced by compound 1 reflected increased steady state levels of its mRNA, RNA was isolated from PC12 cells treated with increasing concentrations of compound 1 for 18 hours and the cell lysates subjected to semi-quantitative rtPCR. […] HSP protein levels were also assessed in PC12rtTA cells infected with AdLacZ, Adp75, or AdNRG, and at the same time, exposed to compound 1.

Akt = Akt levels in PC12 cells (immunoblot); format: cell-based; conditions: 16 hours
HSP70, HSP25, HSP90 mRNA = assay: semi-quantitative rtPCR of HSP mRNA in PC12 cells; format: cell-based, rat; conditions: 18 hours
Description: FIGS. 4A-4C are photographs of Western blots which illustrate that compound 1 treatment of PC12 cells induces expression of HSP70. A: PC12 cells were infected with 5 MOI of AdNRG (NRG) or AdLacZ (LacZ) as indicated. Cells were left untreated (0) or treated with 40 μM compound 1 at time of infection (30), one hour before lysis (1), or at both times (30+1). Cells were lysed thirty hours after infection, normalized for protein content, and analyzed for levels of phospho-Ser^63 c-Jun and total c-Jun, total JNK, IkBα, and NRAGE by immunoblotting. Lysates from untreated cells are indicated by ‘−’. B: PC12 cells were treated with the indicated concentrations of compound 1 for 18 hours and then lysed, normalized for protein content, and analyzed for levels of HSP70 by immunoblotting. Lysates from untreated cells are indicated by ‘−’. C: RNA isolated from PC12^rtTA cells treated with increasing concentrations of compound 1 for 18 hours was analyzed by rtPCR using primers specific to HSP70, HSP25, HSP90 or actin, as indicated. […] Thirty hours after infection, cells were lysed, normalized for protein content, and analyzed for levels of c-Jun phosphorylation, HSP70, HSP25, HSP40, NRAGE, p75NTR, JNK-1 and IkBα, as indicated.
To address this, SCG neurons were treated with compound 1 for 18 hours then lysed and assessed for HSP70 levels by immunoblot. […]

PC12 cells = assay: PC12 cell death induced by chemotherapeutic drugs (LDH assay); format: cell-based
Description: FIG. 3 is a graph showing that compound 1 inhibits JNK-dependent cell death induced by chemotherapeutic drugs. Cells were infected with AdNRG at 5 MOI or treated with paclitaxel, cisplatin, or doxorubicin (Dox) at the indicated μM concentrations. At the time of treatment, compound 1 or vehicle was added to the cultures, as indicated. After 40 hours, cells were assayed for death using the LDH assay. Results are normalized relative to those obtained with 1% Triton (Tx), and represent the mean±standard deviation of a representative experiment performed in triplicate (*=P<0.01 relative to 0 μM compound 1 for each insult). Experiments were performed twice with identical results.
The ability of compound 1 to inhibit apoptosis in response to a variety of other insults, including the DNA damaging agent, cisplatin, the microtubule disruptor, paclitaxel, and doxorubicin, a topoisomerase inhibitor was investigated. […] Cisplatin-induced apoptosis has been reported to be JNK-dependent when used at low concentrations (10 μM), but JNK-independent at concentrations >25 μM (Sanchez-Perez and Perona, 1999) and consistent with this, compound 1 protected cells exposed to 10 μM, but not 50 μM, cisplatin (FIG. 3).
Cell culture, infection, transfection and immunoblotting. Sympathetic neurons were maintained and deprived of NGF as previously described (Bamji et al., 1998; Ma et al., 1992). PC12^rtTA cells were maintained and infected as previously described (Majdan et al., 1997; Salehi et al., 2002); for NRAGE, […] doxycycline was added to all plates at time of infection. Wildtype and HSF1 nullizygous immortalized mouse embryonic fibroblasts (MEFs) were maintained in DMEM containing 10% fetal calf serum, 1 μM β-mercaptoethanol, 1% non-essential amino acids, 1% L-glutamine, 1% antimycotic solution and 1% sodium pyruvate (all from GibcoBRL). Sympathetic neuron survival was assessed using the MTS assay according to the manufacturer's instructions (Promega). Analysis of PC12 cell death was determined using a lactate dehydrogenase (LDH) assay (Roche) as per the manufacturer's instructions. Transfections using plasmids or RNAi were performed using Lipofectamine 2000. Immunoblotting was performed as previously described (Majdan et al., 1997; Salehi et al., 2002).

HSP70 promoter = assay: HSP70 transcriptional reporter constructs in PC12 cells; format: cell-based; conditions: transfected PC12 cells

NS(=O)(=O)c1nn2cc(-c3ccccc3)nc2s1 [Compound 1]
expression of endogenous HSP70 and HSP25 (HSP70 and HSP25; MEFs lacking HSF1, 24 hours): not in MEFs lacking HSF1
expression of endogenous HSP70 and HSP25 (HSP70 and HSP25; wild type MEFs, 24 hours): strong induction
cellular HSP70 levels (HSP70): large increase
phosphorylated Akt (pAkt) levels (Akt): significantly enhanced
total Akt levels (Akt): reduced total Akt only slightly
HSP25 and HSP70 mRNA levels (HSP70, HSP25, HSP90 mRNA): increased levels
HSP90 or actin mRNA levels (HSP70, HSP25, HSP90 mRNA): no effect
protection against cisplatin-induced cell death (PC12 cells; cisplatin 10 μM): protected
protection against cisplatin-induced cell death (PC12 cells; cisplatin 50 μM): not 50 μM
protection against doxorubicin-induced cell death (PC12 cells; doxorubicin): did not offer any protection
apoptosis induced by paclitaxel (PC12 cells; paclitaxel 10 μM and 50 μM): effectively reduced
activity of HSP70 transcriptional reporter constructs (HSP70 promoter): stimulated
